Source: US4117230A, “Hydantoin derivatives as therapeutic agents” (priority 1977, dated 1978)
Where a name gives a salt, the structure may show the parent alone.

How the values were obtained:
aldose reductase = molecular target: T1, aldose reductase (Bos taurus, UniProt P16116); test: inhibition of aldose reductase enzyme activity (procedure of S. Hayman et al., modified by K. Sestanj et al.); assay type: biochemical, calf
T1 construct: partially purified aldose reductose enzyme obtained from calf lens; from tissue; host or cells: calf lens
Procedure: (§1) The activity of the compounds of the present invention, as agents for the control of chronic diabetic complications, is determined by their ability to successfully pass one or more of the following standard biological and/or pharmacological tests, viz., (1) measuring their ability to inhibit the enzyme activity of isolated aldose reductase; (2) measuring their ability to reduce or inhibit sorbitol accumulation in the sciatic nerve of acutely sterptozotocinized (i.e., diabetic) rats; (3) measuring their ability to reverse already-elevated sorbitol levels in the sciatic nerve and lens of chronic streptozotocin-induced diabetic rats; (4) measuring their ability to prevent or inhibit galactitol formation in the lens of acutely galactosemic rats, and (5) measuring their ability to delay cataract formation and reduce the severity of lens opacities in chronic galactosemic rats.
Hayman et al., as described in the Journal of Biological Chemistry, Vol. 240, p. […] In every case, the substrate employed ws partially purified aldose reductose enzyme obtained from calf lens.

[1] = test system: sorbitol accumulation in the sciatic nerve of streptozotocinized (i.e., diabetic) rats; test: inhibition of sorbitol accumulation in the sciatic nerve of acutely streptozotocinized (diabetic) rats; assay type: in vivo, rat; conditions: measured at 27 h, vs untreated
Procedure: as §1
The following spiro-hydantoin compounds of Preparation C and Examples I-V, VII-IX, XI-XVII, XIX-XXV, XXVII and XXX-XXXIII, respectively, were tested for their ability to reduce or inhibit sorbitol accumulation in the sciatic nerve of streptozotocinized (i.e., diabetic) rats by the procedure essentially described in U.S. Pat. No. 3,821,383. In the present study, the amount of sorbitol accumulation in the sciatic nerves was measured 27 hours after induction of diabetes. The compounds were administered orally at the dose levels indicated at 4, 8 nd 24 hours following the administration of streptozotocin. The results obtained in this manner are presented below in terms of percent inhibition (%) afforded by the test compound as compared to the case where no compound was administered (i.e., the untreated animal where sorbitol levels normally rise from approximately […]. tissue to as high as […]. tissue in the 27-hour test period): […]

[2] = test system: sorbitol levels in the sciatic nerve and the lens of streptozotocin-induced diabetic rats; test: reversal of already-elevated sorbitol levels in sciatic nerve and lens of chronic streptozotocin-induced diabetic rats; assay type: in vivo, rat; conditions: 2.5 mg./kg. orally twice a day, seven days; two weeks after streptozotocin 65 mg./kg. i.v.; three hours post dose
Procedure: as §1
6-Fluoro-spiro-[chroman-4,4'-imidazolidine]-2',5'-dione (the product of Example XXII) was tested for its ability to reverse already-elevated sorbital levels in streptozotocininduced diabetic rats of two weeks duration (i.e., chronic) by administering said compound orally to the animals for a period of seven days. In this study, the sorbital determinations were carried out in both the sciatic nerve and the lens. Streptozotocin was first administered to the animals at 65 mg./kg., via the intravenous route. […]

[3] = test system: galactitol formation in acutely galactosemic rats (lens); test: inhibition of galactitol formation in the lens of acutely galactosemic rats; assay type: in vivo, rat; conditions: 30% galactose diet, seven days
Procedure: as §1
The ability of 6-fluoro-spiro-[chroman-4,4'-imidazolidine]-2',5'-dione to prevent or inhibit galactitol formation in acutely galactosemic rats was determined by administering said compound to the animals, via their feed, for a period of seven days. In this study, normal male rats were first divided into groups of six animals each and then fed a 30% galactose diet together with the compound to be administered at three different dosage levels. […]

[4] = test system: cataract formation in galactosemic rats; test: delay of cataract formation in galactosemic rats (incidence of lenticular opacities); assay type: in vivo, rat; conditions: 30% galactose diet
Procedure: as §1
(§2) To determine the effect of 6-fluoro-spiro-[chroman-4,4'-imidazolidine]-2',5'-dione on cataract formation in galactosemis, rats were fed a 30% galactose diet with and without this compound for a period of 29 days and eye examinations also were routinely conducted approximately twice a week throughout this period. The experimental animals received the test compound mixed in the food at concentration levels necessary to afford approximate doses of 10 mg./kg. and 20 mg./kg., respectively. Control animals received the galactose diet alone (i.e., without the compound). […] The corresponding value obtained in rats receiving the test compound at 20 mg./kg. was 0%.

[5] = test system: lenticular opacities in galactosemic rats; test: severity of lenticular opacities in galactosemic rats (percentage of lens area involved); assay type: in vivo, rat; conditions: for lenses with area of involvement never less than 10%: 17 days, control 75%
Procedure: as §1, §2
The effectiveness of 6-fluoro-spiro-[chroman-4,4'-imidazolidine]-2',5'-dione in delaying cataract development in rats is further highlighted by the test producedure of Example XLIV by giving careul consideration to the severity of the lenticular opacities involved. In this study, the percentage of lens areas involved were monitored throughout the 29-day period and the results obtained served as an index of severity. […]

[6] = test system: sorbitol levels in diabetic rats; test: control of sorbitol formation in diabetic rats, oral route (summary statement); assay type: in vivo, rat; conditions: 0.75 mg./kg. to 20 mg./kg.
From the text: As previously indicated, the spiro-hydantoin compounds of this invention are all readily adapted to therapeutic use as aldose reductase inhibitors for the control of chronic diabetic complications, in view of their ability to reduce lens sorbitol levels in diabetic subjects to a staistically significant degree. […] The other compounds of this invention also cause similar results. Furthermore, all the herein described compounds of this invention can be administered by either the oral or parenteral routes of administration, for the present purposes at hand, without causing any significant untoward pharmacological side reactions to occur in the subject to whom they are so administered. In general, these compounds are ordinarily administered in dosages ranging from about 0.1 mg. to about 10 mg. per kg. of body weight per day, although variations will necessarily occur depending upon the weight and condition of the subject being treated and the particular route of administration chosen.

[7] = test system: sorbitol levels in the sciatic nerve and lens of diabetic subjects; test: lowering of sorbitol levels in sciatic nerve (peripheral nerves) and lens of diabetic subjects (summary statement); assay type: in vivo; conditions: qualitative statement
[8] = test system: galactitol levels in the lens of galactosemic subjects; test: lowering of galactitol levels in the lens of galactosemic subjects (summary statement); assay type: in vivo; conditions: qualitative statement
[9] = assay type: physicochemical
Procedure: The sodium salt of 6-fluoro-spiro-[chroman-4,4'-imidazolidine]-2',5'-dione is prepared by dissolving said compound in water containing an equivalent amount in moles of sodium hydroxide and then freeze-drying the mixture.

SMILES: O=C1NC(=O)C2(CCOc3ccc(F)cc32)N1 (stereo not shown) [Ex. XXII, 6-fluoro-spiro[chroman-4,4'-imidazolidine]-2',5'-dione]
- inhibition at 100 µM (aldose reductase; 10^-4 M, calf lens enzyme, read-out: Percent inhibition of aldose reductase enzyme activity): 84%
- inhibition at 10 µM (aldose reductase; 10^-5 M, calf lens enzyme, read-out: Percent inhibition of aldose reductase enzyme activity): 58%
- inhibition at 1 µM (aldose reductase; 10^-6 M, calf lens enzyme, read-out: Percent inhibition of aldose reductase enzyme activity): 52%
- inhibition at 0.1 µM (aldose reductase; 10^-7 M, calf lens enzyme, read-out: Percent inhibition of aldose reductase enzyme activity): 3%
- aldose reductase inhibitory activity (in words) (aldose reductase; qualitative statement): highly potent
- Percent inhibition of sorbitol accumulation in the sciatic nerve ([1]; 0.75 mg./kg. orally at 4, 8 and 24 h after streptozotocin): 45%
- Percent inhibition of sorbitol accumulation in the sciatic nerve ([1]; 1.5 mg./kg. orally at 4, 8 and 24 h after streptozotocin): 72%
- reduction in sorbitol levels in the lens [2]: 71%
- reduction in sorbitol levels in the sciatic nerve [2]: 68%
- inhibition of galactitol values in the lens ([3]; 10 mg./kg. in feed): 40%
- inhibition of galactitol values in the lens ([3]; 20 mg./kg. in feed): 72%
- delay in cataract formation ([4]; 20 mg./kg., 29-day mark): an impressive delay in cataract formation was still observed at the 29-day mark
- eyes with lenticular opacities ([4]; 22-day mark, 10 mg./kg. in food): greater than 90%
- eyes with lenticular opacities ([4]; 29-day mark, 20 mg./kg. in food): 37%
- eyes with lenticular opacities ([4]; 17 days, 10 mg./kg. in food, control 100%): 6%
- eyes with lenticular opacities ([4]; 17 days, 20 mg./kg. in food, control 100%): 0%
- lenticular opacities in the eyes ([4]; after 8-14 days, either 10 mg./kg. or 20 mg./kg. in food, control 90% of eyes): no opacities being present
- delay in cataract formation ([4]; all treated groups (10 and 20 mg./kg.)): delay in cataract formation continued in all the treated groups until the 22-day mark
- lenses with area of involvement never less than 10% ([5]; 10 mg./kg.): 6%
- lenses with area of involvement never less than 10% ([5]; 20 mg./kg.): 0%
- severity of lenticular opacities versus control group ([5]; treated groups, including 29-day mark): always less than that found in the control group
- control (inhibition) of the formation of sorbitol levels (in words) [6]: to a significantly high degree
- lowering of sorbitol levels in sciatic nerve (peripheral nerves) and lens (in words) [7]: extremely effective
- lowering of galactitol levels in the lens (in words) [8]: extremely effective

SMILES: O=C1NC(=O)C2(CCOc3ccc(F)cc32)N1 (stereo not shown) [sodium salt of 6-fluoro-spiro-[chroman-4,4'-imidazolidine]-2',5'-dione]
- solubility in water [9]: freely soluble in water
